Entries after “also recorded” stand apart in the source; their conditions may differ.
Columns and labels:
[1] = system: HIV in chronically infected cell lines; settings: cited from earlier work
[2] = system: HIV infection; settings: cited from earlier work
[3] = system: CMV promoter in 293-EBNA cells; experiment: AP reporter gene expression from CMV promoter, 293-EBNA cells stably transfected with pCMV.AP; type: cell-based, human cytomegalovirus; human cells; settings: Homo sapiens, 293-EBNA; FIG. 8; read-out: concentration inhibiting AP activity by 50% (CMV assay)
Description: An assay for measuring the anti-viral activity of the compounds involves testing the abilities of the compounds to inhibit gene expression directed by specific viral promoters in cell lines. Specifically, a plasmid construct, pCMV.AP, using the human cytomegalovirus (CMV) enhancer and promoter to direct the expression of the secreted human placental alkaline phosphatase reporter gene were transformed into a tumor cell line (e.g., 293-EBNA cells). The cultured cells were treated with various concentrations of the compounds. The expression of the alkaline phosphatase (AP) reporter gene in the individual cultures can then be measured by following the change in absorbance at A405 of the cell conditioned media in the presence of a suitable substrate (e.g., ortho-nitrophenol phosphate) (Berger et al., Gene 66:1,1988).
The construction of expression vectors for secreted placental alkaline phosphatase (sPAP) was performed by obtaining a mammalian episomal expression vector pBL3, derived from the plasmids pMEP4 and pCEP4 (Invitrogen Corp). Specifically, a 600 bp Spe I--Kpn I fragment spanning the CMV promoter from pCEP4 and a 9500 bp Xba I--Kpn I vector fragment from pMEP4 were isolated and ligated together to form pBL3. Full length sPAP cDNA was amplified by PCR using the plasmid pGEM4Z/SEAP (ATCC) as template with primers 5'-[…]-3' (SEQ ID NO. 1) and 5'-[…]-3' (SEQ ID NO. 2). The PCR product was then digested with Xba I and Sal I and inserted between the Nhe I site and the Xho I site within the multiple cloning region of pBL3. The resulting plasmid was designated as PCMV.AP.

[4] = Viability of 293-EBNA cells, Alamar Blue; type: cell-based, human; settings: human, 293-ebna cells; read-out: LD50 (CMV assay, FIG. 9)
Description: Cell viability was measured by a colorimetric assay that uses Alamar Blue dye (Alamar, Inc.) to report cell proliferation, viability and cytotoxicity. This vital dye indicates cell activity by serving as substrate for mitochrondrial dehydrogenases for the formation of soluble dyes which can be quantitated by determining the difference in absorbance between A570 and A600 using a plate reader.
Cell viability was measured by a […] assay that uses Alamar Blue dye (Alamar, Inc.) to report cell proliferation, viability and cytotoxicity. This vital dye indicates cell activity by serving as substrate for mitochrondrial dehydrogenases for the formation of soluble dyes which can be quantitated by determining the difference in absorbance between A570 and A600 using a plate reader.
This example illustrates that CT2576 suppressed both tat-dependent and TNF-α induced HIV-LTR transcription with an IC50 of approximately 10 μM. Study of the effects of CT2576 on cell toxicity was performed using the Alamar Blue™ dye (Alamar Biosciences) according to the manufacturer's instructions. CT2576 was not toxic to 293-EBNA cells at concentrations up to 35 μM. To show CT2576 can inhibit HIV expression, CT2576 was tested for the ability to block HIV p24 antigen expression in chronically or acutely infected cells. Specifically, CT2576 inhibited the TNF-α and IL-6 induced and the constitutive expression of HIV in the chronically infected U1 cells and in peripheral blood lymphocytes (PBL) freshly infected with a HIV strain from a clinical isolate with an IC50 of approximately 1 μM. Pharmacological inhibition of synthesis of selected PL may therefore be a novel therapeutic approach to suppression of HIV replication.

[5] = Viability of 293-EBNA cells (dye not stated); settings: human
[6] = system: HIV-LTR promoter (tat transactivation) in 293-EBNA cells; experiment: AP reporter gene expression from HIV-LTR promoter with tat expression vector, 293-EBNA cells; type: cell-based, HIV; human cells
Outline: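 293-EBNA cells were transiently co-transfected with an HIV-LTR-driven secreted placental alkaline phosphatase reporter and a tat(1–72) expression plasmid. At 24 h, the medium was switched to serum-free AIM V before compounds were added at various concentrations. Secreted AP activity was read colorimetrically at 405 nm 19–24 h later.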

[7] = system: 293-EBNA cells
[8] = system: LPAAT (lysophosphatidate acyl-CoA acyltransferase); experiment: LPAAT inhibition in vitro; type: biochemical, mammalian; settings: Lineweaver-Burke graph
Source text: The mammalian cell membrane associated enzyme lysophosphatidate acyl-CoA acyltransferase (LPAAT) catalyzes the transfer of acyl CoA from lysophosphatidic acid (lyso-PA) to phosphatidic acid (PA) species. Certain PA species function as lipid intermediates in cell activation and function directly as intracellular signaling molecules. PA is subsequently dephosphorylated to 1,2-sn diacylglycerol (DAG) via phosphatidate phosphohydrolase (PAH). The compounds that inhibit viral replication, gene expression and viral antigen release in infected cells also have decreased amounts of intracellular PA species that are formed in response to inflammatory cellular activation. […] Therefore, if PA derived from lyso-PA is an important intracellular signaling intermediate for TNF or IL-1 induced viral replication in virally-infectedcells, then inhibitors of PA formation will act to prevent progression of viral diseases by blocking cell signaling to stimulate virion formation.

[9] = system: HIV-1 in U1 cells (constitutive expression); experiment: Constitutive HIV-1 p24 antigen expression in chronically infected U1 cells; type: cell-based, HIV-1; human cells; settings: U1 cells plated at high density; in words
Description: (§1) Another assay examined the effect of compounds on chronically HIV-1 infected U1 cells. A relatively high density of U1 cells at 10^4 cells/well were incubated in the absence or presence of compounds for 4 days. HIV-1 p24 antigen expression in the culture media was measured by using a ELISA kit (Abbott). Alternatively, U1 cells were plated at a relatively low density of 2×10^3 cell/well plus or minus TNF at 20 pg/ml and plus or minus compounds. The expression of HIV-1 p24 antigen in culture media was measured by ELISA four days later.
(§2) Stable cell lines 293tar, 293tat and 293tat2 were generated by transfections using conditions described in (Tate et al., FASEB J. 4:227-231, 1990) with the plasmid pHIV.AP alone or along with either pHIV.tat or pSV2tat72, respectively. The assay of HIV-1 p24 antigen expression in the chronically HIV-1-infected promonocytic line U1 after 4 days and in acutely infected peripheral blood lymphocytes (PBL) after 7 days were described (Peterson et al., J. Clin. Invest. 89:574-580, 1992, and Brighty et al., Proc Natl. Acad. Sci. USA 88:7802-7805, 1991).
(§3) This example illustrates that CT2576 inhibited both constitutive and cytokine-induced HIV expression in a chronically-infected U1 cell line. A chronically HIV-1 infected human promonocyte cell line, U1 (Poli et al., J. Exp. Med. 172:151-158, 1990), was used as a model to see if the inhibitory effect of CT2576 on HIV-LTR driven reporter gene expression could be extended to block HIV replication per se in infected cells. TNF-α and IL-6 have been reported to upregulate the expression of HIV-1 in U1 cells (Poli et al., Proc Natl. Acad. Sci. USA 91:108-112, 1994). U1 cells were plated onto 24-well microtiter plates to study the dose-response effect of CT2576 on the constitutive (10^4 cells/well), TNF-α or IL-6 mediated (2×10^3 cells/well) expression of HIV-1. CT2576 was capable of inhibiting the constitutive, the TNF-α mediated, as well as the IL-6 mediated expression of HIV in U1 cells with an IC50 value of less than 1 μM (FIG. 17).

[10] = system: HIV-1 in U1 cells (TNF-α mediated expression); experiment: TNF-α-mediated HIV-1 p24 antigen expression in chronically infected U1 cells; type: cell-based, HIV-1; human cells; settings: U1 cells; in words
Description: as §1, §2, §3

[11] = system: HIV in infected monocytic cells; experiment: HIV replication, gene expression and p24 release in infected monocytic cells stimulated by TNF; type: cell-based; settings: TNF activation
Description: as §1

[12] = system: HIV-1 strain JR-CSF in PBL; experiment: HIV-1 p24 antigen expression in acutely infected peripheral blood lymphocytes (PBL); type: cell-based, HIV-1; human cells; settings: Human immunodeficiency virus 1, Lymphocyte, clinical isolate
Description: FIG. 17 illustrates a dose response curves of CT2576 on constitutive, TNF-α, and IL-6-mediated expression of HIV-1 in a chronically infected U1 cell line (left Y-axis) and of CT3537 on HIV expression in PBL acutely infected with the JR-CSF primary isolate (right Y-axis). U1 cells were incubated for four days after the addition of CT2576 with or without TNF-α (20 pg/ml) or IL-6 (1 ng/ml). PBL were inoculated with HIV at 10 ng virus/10^6 cells/well and incubated with various concentrations of CT3537 for 7 days. Each data point represents the average expression levels of HIV-1 p24-antigen in the cell supernatants measured by ELISA from triplicate samples with error bar indicating the SD.
Stable cell lines 293tar, 293tat and 293tat2 were generated by transfections using conditions described in (Tate et al., FASEB J. 4:227-231, 1990) with the plasmid pHIV.AP alone or along with either pHIV.tat or pSV2tat72, respectively. The assay of HIV-1 p24 antigen expression in the chronically HIV-1-infected promonocytic line U1 after 4 days and in acutely infected peripheral blood lymphocytes (PBL) after 7 days were described (Peterson et al., J. Clin. Invest. 89:574-580, 1992, and Brighty et al., Proc Natl. Acad. Sci. USA 88:7802-7805, 1991). […]

[13] = system: HIV-LTR promoter / tat protein; settings: through interaction with the tat protein; cited from earlier work

Compound: Cc1cn([C@H]2C[C@H](N=[N+]=[N-])[C@@H](CO)O2)c(=O)[nH]c1=O [AZT]
- activity on HIV replication in chronically infected cell lines [1]: not to be active
- progression of AIDS disease ([2]; asymptomatic patients, early stage HIV infection): no delay in the progression of AIDS disease
- CD4+ T cell number ([2]; treatment versus placebo group): consistently higher number of CD4^+ T cells

Compound: CCCCCCCCNCC(O)CCCCCCCCCN1C(=O)Cc2ccccc2C1=O (stereo not drawn) [CT1115, N-(11-octylamino-10-hydroxyundecyl)homophthalimide]
- IC50 [3]: 2 to 6 µM
- CC50 [4]: ~5 µM

Compound: CCCCCCCCNCC(O)CCCCCCCCCn1c(=O)c2[nH]cnc2n(C)c1=O (stereo not drawn) [CT1416, N-(11-octylamino-10-hydroxyundecyl)-3-methylxanthine]
- CC50 [5]: ~5 µM
- IC50 [3]: 2 to 6 µM
- CC50 [4]: ~5 µM
- IC50 ([6]; Homo sapiens, 293-EBNA, read-out: concentration inhibiting AP expression by 50%): 1000 to 4000 nM
- effect on cell viability / cytotoxicity [7]: some cytotoxicity

Compound: C[C@@H](O)CCCCn1c(=O)c2c(ncn2C)n(C)c1=O [CT1501R, R-1-(5-hydroxyhexyl)-3,7-dimethylxanthine]
- mode of LPAAT inhibition [8]: competitive inhibition
- suppression of constitutive HIV-1 expression (p24) [9]: suppressed constitutive HIV-1 expression
- suppression of TNFα-mediated HIV-1 expression (p24) [10]: suppressed HIV-1 expression
- antiviral activity in TNF-stimulated infected monocytic cells [11]: inhibiting HIV replication, gene expression and p24 release
- inhibition of AP expression (HIV-LTR promoter) ([6]; 293-EBNA cells, HIV promoter, in words): No appreciable inhibition of AP expression; also recorded: did not affect AP activity
- effect on cell viability / cytotoxicity [7]: did not affect AP activity and cell viability significantly

Compound: CCCCCCCCN(CC(CCCCCCCCCn1c(=O)c2c(ncn2C)n(C)c1=O)OC(C)=O)C(C)=O (stereo not drawn) [CT3537, 1-[11-(N-octylacetamido)-10-acetoxyundecyl]-3,7-dimethylxanthine]
- IC50 [12]: < 1000 nM

Compound: CNC1=Nc2ccc(Cl)cc2C(c2ccc[nH]2)=NC1 [Ro 24-7429]
- block of HIV-LTR promoter transcription [13]: blocks HIV-LTR promoter transcription
